Data taken from patent publication US10954217B2 (priority 2016, dated 2021).

Experiments:
Assay in all cases: biochemical
[1] = target: 5-HT2B (Homo sapiens (Human), UniProt P41595)
[2] = target: 5-HT2C (Homo sapiens (Human), UniProt P28335)
[3] = target: Alpha2A (Homo sapiens (Human), UniProt P08913)
[4] = target: Alpha2B (Homo sapiens (Human), UniProt P18089)
[5] = target: Alpha2C (Homo sapiens (Human), UniProt P18825)
[6] = target: H2 (Homo sapiens (Human), UniProt P25021)
[7] = target: 5-HT2A (Homo sapiens (Human), UniProt P28223)
[8] = target: Alpha1B (Homo sapiens (Human), UniProt P35368)
[9] = target: D3 (Homo sapiens (Human), UniProt P35462)
[10] = target: M2 (Homo sapiens (Human), UniProt P08172)
[11] = target: M3 (Homo sapiens (Human), UniProt P20309)
[12] = target: M4 (Homo sapiens (Human), UniProt P08173)
[13] = target: M5 (Homo sapiens (Human), UniProt P08912)
[14] = target: Alpha1D (Homo sapiens (Human), UniProt P25100)
[15] = target: H1 (Homo sapiens (Human), UniProt P35367)
[16] = target: KOR (Homo sapiens (Human), UniProt P41145)
[17] = target: D4 (Homo sapiens (Human), UniProt P21917)

Structure (SMILES) | Ki [1] [nM] | Ki [2] [nM] | Ki [3] [nM] | Ki [4] [nM] | Ki [5] [nM] | Ki [6] [nM] | Ki [7] [nM] | Ki [8] [nM] | Ki [9] [nM] | Ki [10] [nM] | Ki [11] [nM] | Ki [12] [nM] | Ki [13] [nM] | Ki [14] [nM] | Ki [15] [nM] | Ki [16] [nM] | Ki [17] [nM]
Clc1cc(Cl)cc(CN2Cc3ccc(N4CCOCC4)cc3C2)c1 | 702 | 1380 | 2340 | 6800 | 4540 | 1180 |  |  |  |  |  |  |  |  |  |  | 
CN1CCN(c2ccc3c(c2)CN(S(=O)(=O)c2cc(Cl)cc(Cl)c2)C3)CC1 |  | 833 |  |  |  |  | 520 |  | 599 | 3890 | 1960 | 3510 | 2090 | 6470 | 487 | 8490 | 
Clc1cc(Cl)cc(CN2CCc3ccc(N4CCOCC4)cc3C2)c1 |  |  |  |  |  |  |  |  | 3230 |  |  |  |  |  | 1330 |  | 973

Further molecules by falling Ki [9], results first:

Ki [1] [nM] | Ki [2] [nM] | Ki [3] [nM] | Ki [4] [nM] | Ki [5] [nM] | Ki [6] [nM] | Ki [7] [nM] | Ki [8] [nM] | Ki [9] [nM] | Ki [10] [nM] | Ki [11] [nM] | Ki [12] [nM] | Ki [13] [nM] | Ki [14] [nM] | Ki [15] [nM] | Ki [16] [nM] | Ki [17] [nM] | Structure (SMILES)
206 | 1080 |  |  |  |  |  |  | 271 | 1650 | 2020 | 2280 | 2320 |  | 4780 | 2560 |  | CN1CCN(c2ccc3c(c2)CN(S(=O)(=O)c2cc(Cl)cc(Cl)c2)CC3)CC1
 |  |  |  | 168 |  | 513 | 1390 | 220 | 4200 | 710 | 1890 | 1290 |  |  |  |  | C=CCN1CCN(c2ccc3c(c2)CN(S(=O)(=O)c2cc(Cl)cc(Cl)c2)C3)CC1
397 |  |  |  |  |  |  |  | 107 |  | 1950 |  | 3580 | 3500 | 241 | 2200 |  | C=CCN1CCN(c2ccc3c(c2)CN(S(=O)(=O)c2cc(Cl)cc(Cl)c2)CC3)CC1
